Data on 19 molecules can be found in patent US11497738B2, “Di-substituted pyrazole compounds for the treatment of diseases” (FGH BIOTECH, INC., priority 2016, dated 2022).

Where only a bound is given, the exact number is not on record here.

In this assay the test system is SCD1 expression. Description: Inhibition assay: qPCR of SCD1 expression in HepG2 cells (Biological Example 1). The class given is cell-based. To be noted: Homo sapiens, 24 hours; for inhibition at 1 µM: read-out: Inhibition Percentage (%) 1 μM (SCD1 expression); for inhibition at 10 µM: read-out: Inhibition Percentage (%) 10 μM (SCD1 expression). The protocol:
HepG2 cells were grown in Dulbecco's Modified Eagle Medium (DMEM) containing 5% FBS and antibiotic-antimycotic in a humidified incubator at 37° C. with 5% CO2. All three components were purchased from ThermoFisher Scientific (Catalog numbers are 11995073, 26140079, and 15240062, respectively). Treatments were done in duplicates for each dose of each compound. For control and treated each treatment, 400,000 HepG2 cells were seeded onto 1 well of 24-well plate. After one day in culture, cells were treated with the test compound (1 μM and/or 10 μM, as indicated below in Table 1) for 24 hours in DMEM with 5% FBS. Compounds were diluted using DMSO from 20 mM stocks. Total RNAs were extracted using RNA extraction kit (Cat #: 45001163, Fisher Scientific) or Trizol. If Trizol was used, RNAs were treated with DNase I (cat #: 18068015, ThermoFisher Scientific) before qPCR. RNA concentrations were measured on a Nanodrop. One-step qPCR were performed using SYBR Green One Step qPCR Kit (Cat #: B25002, Biotool). 10 ng RNA was used in each 10-ul reaction. Triplicate reactions were done for each RNA sample. qPCR was performed on an ABI StepOnePlus using the program: Holding stage step 1, 50° C. 3 min, step 2, 95° C. 5 min; Cycling stage (40 cycles) step 1, 95° C. 10 sec, step 2, 60° C. 30 sec. Primer sequence was as follows: SCD1, 5′-[…]-3′/5′-[…]-3′.
All data was measured in HepG2 cells. % inhibition data of SCD1 expression are provided in Table 1. % inhibition at 10 μM is provided as follows: A≥75%; 75%>B≥50%; 50%>C≥10%. % inhibition at 1 μM is provided as follows: A1≥30%; 30%>B1≥2%. NI means no inhibition in the assay at the indicated concentration of compound tested. NT means not tested.
(In general: In qPCR the cycle at which signal appears reflects the starting amount.)

By inhibition is commonly meant the relative decrease from the control value, in per cent. For `CCCc1cc(-n2cc(-c3ncc(NS(=O)(=O)CC4CC4)cc3Cl)cn2)ccn1` [Example 29, N-(5-chloro-6-(1-(2-propylpyridin-4-yl)-1H-pyrazol-4-yl)pyridin-3-yl)-1-cyclopropylmethanesulfonamide], the inhibition at 1 µM is 2 to 30% and the inhibition at 10 µM is greater than 75%.

Consider `CCCc1cc(-n2cc(-c3ncc(NS(C)(=O)=O)cc3Cl)cn2)ccn1` [Example 30, N-(5-chloro-6-(1-(2-propylpyridin-4-yl)-1H-pyrazol-4-yl)pyridin-3-yl)methanesulfonamide], for which the inhibition at 10 µM was 50 to 75%.

With `CCCc1cc(-n2cc(-c3ccc(NC4CCCC4)nc3)cn2)ccn1` [Example 32, N-cyclopentyl-5-(1-(2-propylpyridin-4-yl)-1H-pyrazol-4-yl)pyridin-2-amine], the inhibition at 10 µM was greater than 75%.

As for `CCCc1cc(-n2cc(-c3ccc(NC4CCC4)nc3)cn2)ccn1` [Example 33, N-cyclobutyl-5-(1-(2-propylpyridin-4-yl)-1H-pyrazol-4-yl)pyridin-2-amine], the inhibition at 1 µM was no less than 30% and the inhibition at 10 µM is greater than 75%.

In the case of `CCCc1cc(-n2nc(C)c(-c3ccc(NCC(C)C)nc3)c2C)ccn1` [Example 34, 5-(3,5-dimethyl-1-(2-propylpyridin-4-yl)-1H-pyrazol-4-yl)-N-isobutylpyridin-2-amine], the inhibition at 1 µM was in the range of 2 to 30% and the inhibition at 10 µM was in the range of 50 to 75%.

On to `CCCc1cc(-n2nc(C)c(-c3ccc(NCC4CC4)nc3)c2C)ccn1` [Example 35, N-(cyclopropylmethyl)-5-(3,5-dimethyl-1-(2-propylpyridin-4-yl)-1H-pyrazol-4-yl)pyridin-2-amine], for which the inhibition at 1 µM lay within 2 to 30% and the inhibition at 10 µM was in the range of 50 to 75%.

For `CCCc1cc(-n2nc(C)c(-c3ccc(NC(C)C)nc3)c2C)ccn1` [Example 36, 5-(3,5-dimethyl-1-(2-propylpyridin-4-yl)-1H-pyrazol-4-yl)-N-isopropylpyridin-2-amine], the inhibition at 10 µM lay within 50 to 75%.

As to `CCCc1cc(-n2nc(C)c(-c3ccc(NC4CCC4)nc3)c2C)ccn1` [Example 38, N-cyclobutyl-5-(3,5-dimethyl-1-(2-propylpyridin-4-yl)-1H-pyrazol-4-yl)pyridin-2-amine], the inhibition at 1 µM is no less than 30% and the inhibition at 10 µM was greater than 75%.

As to `CCCc1cc(-n2nc(C)c(-c3ccc(NS(=O)(=O)C(F)(F)F)nc3)c2C)ccn1` [Example 39, N-(5-(3,5-dimethyl-1-(2-propylpyridin-4-yl)-1H-pyrazol-4-yl)pyridin-2-yl)-1,1,1-trifluoromethanesulfonamide], the inhibition at 1 µM was in the range of 2 to 30% and the inhibition at 10 µM was 10 to 50%.

As to `CCCc1cc(-n2nc(C)c(-c3ccc(NC4CCCC4)nc3)c2C)ccn1` [Example 40, N-cyclopentyl-5-(3,5-dimethyl-1-(2-propylpyridin-4-yl)-1H-pyrazol-4-yl)pyridin-2-amine], the inhibition at 1 µM is no less than 30% and the inhibition at 10 µM was in the range of 50 to 75%.

For `CCCn1cc(-n2cc(-c3ccc(NC(C)C)nc3)cn2)ccc1=O` [Example 44, 5-(4-(6-(isopropylamino)pyridin-3-yl)-1H-pyrazol-1-yl)-1-propylpyridin-2(1H)-one], the inhibition at 1 µM is 2 to 30% and the inhibition at 10 µM was greater than 75%.

On to `CCCn1cc(-n2cc(-c3ccc(NS(C)(=O)=O)cc3)cn2)ccc1=O` [Example 45, N-(4-(1-(6-oxo-1-propyl-1,6-dihydropyridin-3-yl)-1H-pyrazol-4-yl)phenyl)methanesulfonamide], for which the inhibition at 1 µM is no less than 30% and the inhibition at 10 µM is greater than 75%.

With `CCCc1cccc(-n2cc(-c3ccc(NS(C)(=O)=O)cc3)cn2)c1` [Example 47, N-(4-(1-(3-propylphenyl)-1H-pyrazol-4-yl)phenyl)methanesulfonamide], the inhibition at 10 µM is 10 to 50%.

As for `CCCc1cc(-n2cc(-c3ccc(NC4CCOCC4)nc3)cn2)ccn1` [Example 52, 5-(1-(2-propylpyridin-4-yl)-1H-pyrazol-4-yl)-N-(tetrahydro-2H-pyran-4-yl)pyridin-2-amine], the inhibition at 1 µM was no less than 30% and the inhibition at 10 µM is greater than 75%.

As to `CCCc1cc(-n2cc(-c3ccc(NCC(C)C)nc3)c(C)n2)ccn1` [Example 53, N-isobutyl-5-(3-methyl-1-(2-propylpyridin-4-yl)-1H-pyrazol-4-yl)pyridin-2-amine], the inhibition at 1 µM was 2 to 30% and the inhibition at 10 µM was greater than 75%.

Consider `CCCc1cc(-n2cc(-c3ccc(NCC4CC4)nc3)c(C)n2)ccn1` [Example 54, N-(cyclopropylmethyl)-5-(3-methyl-1-(2-propylpyridin-4-yl)-1H-pyrazol-4-yl)pyridin-2-amine], for which the inhibition at 10 µM lay within 50 to 75%.

Consider `CCCc1cc(-n2cc(-c3ccc(NC4CCCC4)nc3)c(C)n2)ccn1` [Example 55, N-cyclopentyl-5-(3-methyl-1-(2-propylpyridin-4-yl)-1H-pyrazol-4-yl)pyridin-2-amine], for which the inhibition at 1 µM fell in the range of 2 to 30% and the inhibition at 10 µM was greater than 75%.

In the case of `CCCc1cc(-n2cc(-c3ccc(NC(C)C)nc3)c(C)n2)ccn1` [Example 56, N-isopropyl-5-(3-methyl-1-(2-propylpyridin-4-yl)-1H-pyrazol-4-yl)pyridin-2-amine], the inhibition at 1 µM is 2 to 30% and the inhibition at 10 µM is greater than 75%.

For the molecule `CCCc1cc(-n2cc(-c3ccc(NC4CCC4)nc3)c(C)n2)ccn1` [Example 57, N-cyclobutyl-5-(3-methyl-1-(2-propylpyridin-4-yl)-1H-pyrazol-4-yl)pyridin-2-amine], the inhibition at 1 µM is 2 to 30% and the inhibition at 10 µM is greater than 75%.
